Reference: patent US20090197880A1 (Genelabs Technologies, Inc., priority 2007, published 2009)

Experiment: HCV replicon assay (luciferase) in ET (Huh-lucubineo-ET) cell line
Assay type: cell-based
Details: Hepatitis C virus; tested at 10 μM; inhibition of replication relative to no compound control; ET replicon cells, luciferase 48-72 hours; read-out: % inhition at 10 μM
Excerpt: A cell line, ET (Huh-lucubineo-ET) was used for screening of compounds, or pharmaceutically acceptable salts or solvates, described herein for inhibition of HCV RNA dependent RNA polymerase. The ET cell line was stably transfected with RNA transcripts harboring a I389luc-ubi-neo/NS3-3′/ET; replicon with firefly luciferase-ubiquitin-neomycin phosphotransferase fusion protein and EMCV-IRES driven NS3-5B polyprotein containing the cell culture adaptive mutations (E1202G; T1280I; K1846T) (Krieger at al, 2001 and unpublished). The ET cells were grown in DMEM, supplemented with 10% fetal calf serum, 2 mM Glutamine, Penicillin (100 IU/mL)/Streptomycin (100 μg/mL), 1× nonessential amino acids, and 250 μg/mL G418 (“Geneticin”). They were all available through Life Technologies (Bethesda, Md.). The cells were plated at 0.5−1.0×10^4 cells/well in the 96 well plates and incubated for 24 hrs before adding the test compounds. […] Luciferase activity was measured 48-72 hours later by adding a lysis buffer and the substrate (Catalog number Glo-lysis buffer E2661 and Bright-Glo luciferase system E2620 Promega, Madison, Wis.). Cells should not be too confluent during the assay. Percent inhibition of replication was plotted relative to no compound control. Under the same condition, cytotoxicity of the compounds was determined using cell proliferation reagent, WST-1 (Roche, Germany). The compounds showing antiviral activities, but no significant cytotoxicities were chosen to determine the EC50 and TC50, the effective concentration and toxic concentration at which 50% of the maximum inhibition is observed. For these determinations, 6 dilutions of each compound were used. Compounds were typically diluted 3 fold to span a concentration range of 250 fold. EC50 and similarly TC50 values were calculated by fitting % inhibition at each concentration to the following equation:
% inhibition=100%/[(EC50/[I])^b+1]
where b is Hill's coefficient.

## Fc1cccc(-c2nc3cnn(Cc4cc(-c5ccc(OC(F)F)cc5)no4)cc-3n2)c1F [Compound 176, 5-[3-(4-Difluoromethoxy-phenyl)-isoxazol-5-ylmethyl]-2-(2,3-difluoro-phenyl)-5H-imidazo[4,5-d]pyridazine]
  inhibition at 10 µM: 99.8%

## Cc1cc(OC(F)(F)F)ccc1-c1cc(Cn2cc3nc(-c4cccc(F)c4F)nc-3cn2)on1 [Compound 177, 2-(2,3-Difluoro-phenyl)-5-[3-(2-methyl-4-trifluoromethoxy-phenyl)-isoxazol-5-ylmethyl]-5H-imidazo[4,5-d]pyridazine]
  inhibition at 10 µM: 99.6%

## Fc1cccc(-c2nc3cnn(Cc4cc(-c5ccc(COc6cccnc6)cc5)no4)cc-3n2)c1F [Compound 178, 2-(2,3-Difluoro-phenyl)-5-{3-[4-(pyridin-3-yloxymethyl)-phenyl]-isoxazol-5-ylmethyl}-5H-imidazo[4,5-d]pyridazine]
  inhibition at 10 µM: 98.7%

## Fc1cccc(-c2nc3cnn(Cc4cc(-c5ccc(OCc6cccnc6)cc5)no4)cc-3n2)c1F [Compound 179, 2-(2,3-Difluoro-phenyl)-5-{3-[4-(pyridin-3-ylmethoxy)-phenyl]-isoxazol-5-ylmethyl}-5H-imidazo[4,5-d]pyridazine]
  inhibition at 10 µM: 99.9%

## Cc1csc(-c2cc(Cn3cc4nc(-c5cccc(F)c5F)nc-4cn3)on2)n1 [Compound 180, 2-(2,3-Difluoro-phenyl)-5-[3-(4-methyl-thiazol-2-yl)-isoxazol-5-ylmethyl]-5H-imidazo[4,5-d]pyridazine]
  inhibition at 10 µM: 83.3%

## Cc1nc(-c2cc(Cn3cc4nc(-c5cccc(F)c5F)nc-4cn3)on2)c(C)o1 [Compound 185, 2-(2,3-Difluoro-phenyl)-5-[3-(2,5-dimethyl-oxazol-4-yl)-isoxazol-5-ylmethyl]-5H-imidazo[4,5-d]pyridazine]
  inhibition at 10 µM: 47.8%

## CCCCc1ccc(-c2cc(Cn3cc4nc(-c5cccc(F)c5F)nc-4cn3)on2)c(C(F)(F)F)c1 [Compound 186, 5-[3-(4-Butyl-2-trifluoromethyl-phenyl)-isoxazol-5-ylmethyl]-2-(2,3-difluoro-phenyl)-5H-imidazo[4,5-d]pyridazine]
  inhibition at 10 µM: 100%

## Cc1ccc(-c2cc(Cn3cc4nc(-c5cccc(F)c5F)nc-4cn3)on2)cc1 [Compound 187, 2-(2,3-Difluoro-phenyl)-5-(3-p-tolyl-isoxazol-5-ylmethyl)-5H-imidazo[4,5-d]pyridazine]
  inhibition at 10 µM: 99.7%

## CC(C)Cc1ccc(-c2cc(Cn3cc4nc(-c5cccc(F)c5F)nc-4cn3)on2)cc1 [Compound 190, 2-(2,3-Difluoro-phenyl)-5-[3-(4-isobutyl-phenyl)-isoxazol-5-ylmethyl]-5H-imidazo[4,5-d]pyridazine]
  inhibition at 10 µM: 99.9%

## CCCCCc1ccc(-c2cc(Cn3cc4nc(-c5cccc(F)c5F)nc-4cn3)on2)cc1 [Compound 191, 2-(2,3-Difluoro-phenyl)-5-[3-(4-pentyl-phenyl)-isoxazol-5-ylmethyl]-5H-imidazo[4,5-d]pyridazine]
  inhibition at 10 µM: 99.8%

## COC(=O)CCCOc1ccc(-c2cc(Cn3cc4nc(-c5cccc(F)c5F)nc-4cn3)on2)cc1 [Compound 192, 4-(4-{5-[2-(2,3-difluoro-phenyl)-imidazo[4,5-d]pyridazin-5-ylmethyl]-isoxazol-3-yl}-phenoxy)-butyric acid methyl ester]
  inhibition at 10 µM: 54.1%

## OCCCOc1ccc(-c2cc(Cn3cc4nc(-c5cccc(F)c5F)nc-4cn3)on2)cc1 [Compound 193, 3-(4-{5-[2-(2,3-difluoro-phenyl)-imidazo[4,5-d]pyridazin-5-ylmethyl]-isoxazol-3-yl}-phenoxy)-propan-1-ol]
  inhibition at 10 µM: 76.3%

## CN1CCN(c2ccc(-c3cc(Cn4cc5nc(-c6cccc(F)c6F)nc-5cn4)on3)cc2)CC1 [Compound 194, 2-(2,3-Difluoro-phenyl)-5-{3-[4-(4-methyl-piperazin-1-yl)-phenyl]-isoxazol-5-ylmethyl}-5H-imidazo[4,5-d]pyridazine]
  inhibition at 10 µM: 57.5%

## COCCOc1ccc(-c2cc(Cn3cc4nc(-c5cccc(F)c5F)nc-4cn3)on2)cc1 [Compound 195]
  inhibition at 10 µM: 98.8%

## Fc1cccc(-c2nc3cnn(Cc4cc(-c5ccc(OCCN6CCOCC6)cc5)no4)cc-3n2)c1F [Compound 196, 2-(2,3-Difluoro-phenyl)-5-{3-[4-(2-morpholin-4-yl-ethoxy)-phenyl]-isoxazol-5-ylmethyl}-5H-imidazo[4,5-d]pyridazine]
  inhibition at 10 µM: 89%

## CCCOC(=O)c1cc(-c2cc(Cn3cc4nc(-c5cccc(F)c5F)nc-4cn3)on2)ccc1OCCC [Compound 197, 5-{5-[2-(2,3-Difluoro-phenyl)-imidazo[4,5-d]pyridazin-5-ylmethyl]-isoxazol-3-yl}-2-propoxy-benzoic acid propyl ester]
  inhibition at 10 µM: 54.1%

## COC(=O)c1cc(OC)ccc1-c1cc(Cn2cc3nc(-c4cccc(F)c4F)nc-3cn2)on1 [Compound 198, 2-{5-[2-(2,3-Difluoro-phenyl)-imidazo[4,5-d]pyridazin-5-ylmethyl]-isoxazol-3-yl}-5-methoxy-benzoic acid methyl ester]
  inhibition at 10 µM: 50.3%

## O=[N+]([O-])c1ccc(-c2cc(Cn3cc4nc(-c5cccc(F)c5F)nc-4cn3)on2)cc1 [Compound 199, 2-(2,3-Difluoro-phenyl)-5-[3-(4-nitro-phenyl)-isoxazol-5-ylmethyl]-5H-imidazo[4,5-d]pyridazine]
  inhibition at 10 µM: 98.5%

## Fc1cccc(-c2nc3cnn(Cc4cc(-c5ccc(Br)cc5)no4)cc-3n2)c1F [Compound 200, 5-[3-(4-bromo-phenyl)-isoxazol-5-ylmethyl]-2-(2,3-difluoro-phenyl)-5H-imidazo[4,5-d]pyridazine]
  inhibition at 10 µM: 99.4%

## CCCCc1ccc(-c2cc(Cn3cc4nc(-c5cccc(F)c5F)nc-4cn3)on2)cc1 [Compound 201, 5-[3-(4-Butyl-phenyl)-isoxazol-5-ylmethyl]-2-(2,3-difluoro-phenyl)-5H-imidazo[4,5-d]pyridazine]
  inhibition at 10 µM: 100%

## Fc1cccc(-c2nc3cnn(Cc4cc(-c5ccc(C(F)(F)F)cc5)no4)cc-3n2)c1F [Compound 202, 2-(2,3-Difluoro-phenyl)-5-[3-(4-trifluoromethyl-phenyl)-isoxazol-5-ylmethyl]-5H-imidazo[4,5-d]pyridazine]
  inhibition at 10 µM: 99.2%

## Fc1cc(C(F)(F)F)ccc1-c1cc(Cn2cc3nc(-c4cccc(F)c4F)nc-3cn2)on1 [Compound 203, 2-(2,3-Difluoro-phenyl)-5-[3-(2-fluoro-4-trifluoromethyl-phenyl)-isoxazol-5-ylmethyl]-5H-imidazo[4,5-d]pyridazine]
  inhibition at 10 µM: 99.6%

## Fc1cccc(-c2nc3cnn(Cc4cc(-c5ccc(C(F)(F)F)nc5)no4)cc-3n2)c1F [Compound 205, 2-(2,3-Difluoro-phenyl)-5-[3-(6-trifluoromethyl-pyridin-3-yl)-isoxazol-5-ylmethyl]-5H-imidazo[4,5-d]pyridazine]
  inhibition at 10 µM: 98.7%

## Fc1cc(-c2cc(Cn3cc4nc(-c5cccc(F)c5F)nc-4cn3)on2)ccc1C(F)(F)F [Compound 206, 2-(2,3-Difluoro-phenyl)-5-[3-(3-fluoro-4-trifluoromethyl-phenyl)-isoxazol-5-ylmethyl]-5H-imidazo[4,5-d]pyridazine]
  inhibition at 10 µM: 98.1%

## FCCCOc1ccc(-c2cc(Cn3cc4nc(-c5cccc(F)c5F)nc-4cn3)on2)cc1 [Compound 207, 2-(2,3-Difluoro-phenyl)-5-{3-[4-(3-fluoro-propoxy)-phenyl]-isoxazol-5-ylmethyl}-5H-imidazo[4,5-d]pyridazine]
  inhibition at 10 µM: 99.5%

## CN(C)c1ccc(-c2cc(Cn3cc4nc(-c5cccc(F)c5F)nc-4cn3)on2)cc1 [Compound 208, (4-{5-[2-(2,3-Difluoro-phenyl)-imidazo[4,5-d]pyridazin-5-ylmethyl]-isoxazol-3-yl}-phenyl)-dimethyl-amine]
  inhibition at 10 µM: 69.7%

## COC(=O)c1ccc(-c2cc(Cn3cc4nc(-c5cccc(F)c5F)nc-4cn3)on2)cc1 [Compound 209, 4-{5-[2-(2,3-difluoro-phenyl)-imidazo[4,5-d]pyridazin-5-ylmethyl]-isoxazol-3-yl}-benzoic acid methyl ester]
  inhibition at 10 µM: 93.6%

## N#Cc1ccc(-c2cc(Cn3cc4nc(-c5cccc(F)c5F)nc-4cn3)on2)cc1 [Compound 213, 4-{5-[2-(2,3-Difluoro-phenyl)-imidazo[4,5-d]pyridazin-5-ylmethyl]-isoxazol-3-yl}-benzonitrile]
  inhibition at 10 µM: 98.1%

## Fc1cccc(-c2nc3cnn(Cc4cc(-c5ccc(OC(F)(F)F)cc5)no4)cc-3n2)c1F [Compound 214, 2-(2,3-Difluoro-phenyl)-5-[3-(4-trifluoromethoxy-phenyl)-isoxazol-5-ylmethyl]-5H-imidazo[4,5-d]pyridazine]
  inhibition at 10 µM: 98.5%

## CN(C)CCCOc1ccc(-c2cc(Cn3cc4nc(-c5cccc(F)c5F)nc-4cn3)on2)cc1 [Compound 216, [3-(4-{5-[2-(2,3-Difluoro-phenyl)-imidazo[4,5-d]pyridazin-5-ylmethyl]-isoxazol-3-yl}-phenoxy)-propyl]-dimethyl-amine]
  inhibition at 10 µM: 79.1%
